Source: the CheMixHub viscosity set
“And” between values parts separate entries of the source, which are not always exact repeats. Equal values may be shown once.

Test: xn = mol fraction of the nth substance listed

C1CCOC1 + CN(C)C=O
viscosity [mPa·s], 101 kPa
Details	x2 = 0.0988	x2 = 0.1978	x2 = 0.2971	x2 = 0.3967	x2 = 0.4966	x2 = 0.5967	x2 = 0.6971	x2 = 0.7978	x2 = 0.8988
298.15 K	0.47	0.482	0.496	0.518	0.547	0.586	0.63	0.679	0.737
308.15 K	0.434	0.444	0.458	0.476	0.502	0.533	0.57	0.614	0.659
318.15 K	0.41	0.431	0.454	0.478	0.502	0.523	0.545	0.568	0.592

CC(C)=O + CN(C)C=O
298.15 K, 101 kPa
Details	viscosity [mPa·s]
x2 = 0.0367	0.32
x2 = 0.09776	0.343
x2 = 0.136	0.369
x2 = 0.2182	0.378
x2 = 0.394	0.457
x2 = 0.4912	0.499
x2 = 0.6429	0.565
x2 = 0.8008	0.646

CC1COC(=O)O1 (configuration not stated) + CN(C)C=O
101.33 kPa
Details	viscosity [mPa·s]
298.15 K, x1 = 0.1053	0.89
298.15 K, x1 = 0.1593	0.942
298.15 K, x1 = 0.2227	1.004
298.15 K, x1 = 0.2607	1.047
298.15 K, x1 = 0.3155	1.107
298.15 K, x1 = 0.3624	1.164
298.15 K, x1 = 0.4248	1.246
298.15 K, x1 = 0.4476	1.278
298.15 K, x1 = 0.5094	1.37
298.15 K, x1 = 0.5658	1.462
298.15 K, x1 = 0.6334	1.582
298.15 K, x1 = 0.659	1.63
298.15 K, x1 = 0.7108	1.742
298.15 K, x1 = 0.7559	1.835
298.15 K, x1 = 0.8147	1.983
298.15 K, x1 = 0.8705	2.117
298.15 K, x1 = 0.9299	2.284
298.15 K, x1 = 0.954	2.357
308.15 K, x1 = 0.0453	0.742
308.15 K, x1 = 0.1078	0.787
308.15 K, x1 = 0.1606	0.828
308.15 K, x1 = 0.2114	0.87
308.15 K, x1 = 0.2565	0.91
308.15 K, x1 = 0.2989	0.95
308.15 K, x1 = 0.3551	1.005
308.15 K, x1 = 0.4045	1.058
308.15 K, x1 = 0.4505	1.109
308.15 K, x1 = 0.4988	1.167
308.15 K, x1 = 0.5351	1.213
308.15 K, x1 = 0.6158	1.33
308.15 K, x1 = 0.6532	1.38
308.15 K, x1 = 0.7153	1.48
308.15 K, x1 = 0.7499	1.539
308.15 K, x1 = 0.802	1.638
308.15 K, x1 = 0.8517	1.731
308.15 K, x1 = 0.9033	1.841
318.15 K, x1 = 0.049	0.664
318.15 K, x1 = 0.0961	0.694
318.15 K, x1 = 0.1672	0.74
318.15 K, x1 = 0.2118	0.772
318.15 K, x1 = 0.2639	0.811
318.15 K, x1 = 0.3122	0.849
318.15 K, x1 = 0.3528	0.884
318.15 K, x1 = 0.4228	0.946
318.15 K, x1 = 0.4487	0.97
318.15 K, x1 = 0.4941	1.015
318.15 K, x1 = 0.5567	1.081
318.15 K, x1 = 0.6184	1.152
318.15 K, x1 = 0.6678	1.216
318.15 K, x1 = 0.7127	1.271
318.15 K, x1 = 0.7415	1.311
318.15 K, x1 = 0.8179	1.424
318.15 K, x1 = 0.8689	1.505
318.15 K, x1 = 0.9013	1.56

C1CCOC1 + CO
Details	viscosity
298 K, 101 kPa, x1 = 0.0397	0.527 mPa·s
298 K, 101 kPa, x1 = 0.0463	0.5241 mPa·s
298 K, 101 kPa, x1 = 0.0629	0.5179 mPa·s
298 K, 101 kPa, x1 = 0.0984	0.5053 mPa·s
298 K, 101 kPa, x1 = 0.1593	0.49 mPa·s
298 K, 101 kPa, x1 = 0.2295	0.4758 mPa·s
298 K, 101 kPa, x1 = 0.3081	0.463 mPa·s
298 K, 101 kPa, x1 = 0.3952	0.4525 mPa·s
298 K, 101 kPa, x1 = 0.5068	0.4445 mPa·s
298 K, 101 kPa, x1 = 0.6498	0.4398 mPa·s
298 K, 101 kPa, x1 = 0.8052	0.4449 mPa·s
298.15 K, 101 kPa, x1 = 0.3	0.4761 mPa·s
298.15 K, 101 kPa, x1 = 0.3076	0.5025 mPa·s and 0.5015 mPa·s and 0.515 mPa·s
303 K, 101.3 kPa, x1 = 0.0471	0.474 mPa·s
303 K, 101.3 kPa, x1 = 0.1	0.452 mPa·s
303 K, 101.3 kPa, x1 = 0.1599	0.435 mPa·s
303 K, 101.3 kPa, x1 = 0.2285	0.406 mPa·s
303 K, 101.3 kPa, x1 = 0.3075	0.38 mPa·s
303 K, 101.3 kPa, x1 = 0.3998	0.373 mPa·s
303 K, 101.3 kPa, x1 = 0.509	0.356 mPa·s
303 K, 101.3 kPa, x1 = 0.6399	0.356 mPa·s
303 K, 101.3 kPa, x1 = 0.7995	0.384 mPa·s
313 K, 101.3 kPa, x1 = 0.0471	0.395 mPa·s
313 K, 101.3 kPa, x1 = 0.1	0.36 mPa·s
313 K, 101.3 kPa, x1 = 0.1599	0.35 mPa·s
313 K, 101.3 kPa, x1 = 0.2285	0.333 mPa·s
313 K, 101.3 kPa, x1 = 0.3075	0.31 mPa·s
313 K, 101.3 kPa, x1 = 0.3998	0.294 mPa·s
313 K, 101.3 kPa, x1 = 0.509	0.3 mPa·s
313 K, 101.3 kPa, x1 = 0.6399	0.294 mPa·s
313 K, 101.3 kPa, x1 = 0.7995	0.332 mPa·s

CC(C)=O + CO
Details	viscosity [mPa·s]
293.15 K, 101 kPa, x1 = 0.025	0.563
293.15 K, 101 kPa, x1 = 0.098	0.507
293.15 K, 101 kPa, x1 = 0.244	0.435
293.15 K, 101 kPa, x1 = 0.385	0.389
293.15 K, 101 kPa, x1 = 0.487	0.371
293.15 K, 101 kPa, x1 = 0.703	0.342
293.15 K, 101 kPa, x1 = 0.865	0.333
298.15 K, 101.33 kPa, x1 = 0.059	0.4921
298.15 K, 101.33 kPa, x1 = 0.1261	0.455
298.15 K, 101.33 kPa, x1 = 0.1889	0.4225
298.15 K, 101.33 kPa, x1 = 0.2564	0.3965
298.15 K, 101.33 kPa, x1 = 0.3691	0.367
298.15 K, 101.33 kPa, x1 = 0.4581	0.3458
298.15 K, 101.33 kPa, x1 = 0.558	0.3292
298.15 K, 101.33 kPa, x2 = 0.7146	0.3932
303.15 K, 101 kPa, x1 = 0.025	0.496
303.15 K, 101 kPa, x1 = 0.098	0.449
303.15 K, 101 kPa, x1 = 0.244	0.389
303.15 K, 101 kPa, x1 = 0.385	0.352
303.15 K, 101 kPa, x1 = 0.703	0.314
303.15 K, 101 kPa, x1 = 0.865	0.308
313.15 K, 101 kPa, x1 = 0.025	0.435
313.15 K, 101 kPa, x1 = 0.244	0.349
313.15 K, 101 kPa, x1 = 0.385	0.322
313.15 K, 101 kPa, x1 = 0.487	0.311
313.15 K, 101 kPa, x1 = 0.703	0.291
313.15 K, 101 kPa, x1 = 0.865	0.287
318.15 K, 101 kPa, x1 = 0.025	0.411
318.15 K, 101 kPa, x1 = 0.098	0.378
318.15 K, 101 kPa, x1 = 0.244	0.335
318.15 K, 101 kPa, x1 = 0.385	0.311
318.15 K, 101 kPa, x1 = 0.487	0.3
318.15 K, 101 kPa, x1 = 0.703	0.282
318.15 K, 101 kPa, x1 = 0.865	0.277
323.15 K, 101 kPa, x1 = 0.025	0.386
323.15 K, 101 kPa, x1 = 0.098	0.362
323.15 K, 101 kPa, x1 = 0.244	0.32
